Results reported in publication PMC9322314 (2022).

Legend:
[1] = test system: FdxT (DNA, hairpin, hexaethyleneglycol (HEG) loop between 9 and 10) TATAGCTATATAGCTATA; experiment: FRET melting; settings: 10 mM K+, 90 mM Li+; 10 mM Li cacodylate pH 7.2, 0.2 μM DNA, 2 μM compound
[2] = test system: 22AG (DNA, G4) AGGGTTAGGGTTAGGGTTAGGG; experiment: CD titration, Hill fit; settings: 10 mM Li cacodylate pH 7.2, 3 μM DNA
[3] = test system: 22AG (32P-labelled) (DNA, G4) AGGGTTAGGGTTAGGGTTAGGG; experiment: photoalkylation (365 nm), denaturing PAGE; settings: 100 mM K+; covalent; 10 mM Li cacodylate pH 7.2, 10 μM DNA, 20 μM compound
[4] = test system: Pu24T (32P-labelled) (DNA, G4) TGAGGGTGGTGAGGGTGGGGAAGG; experiment: photoalkylation (365 nm), denaturing PAGE; settings: 100 mM K+; covalent; 10 mM Li cacodylate pH 7.2, 10 μM DNA, 20 μM compound
[5] = test system: F21T (DNA, G4) GGGTTAGGGTTAGGGTTAGGG; experiment: FRET melting; settings: 10 mM K+, 90 mM Li+; 10 mM Li cacodylate pH 7.2, 0.2 μM DNA, 20 μM compound
[6] = test system: F(Pu24T)T (DNA, G4) TGAGGGTGGTGAGGGTGGGGAAGG; experiment: FRET melting; settings: 1 mM K+, 99 mM Li+; 10 mM Li cacodylate pH 7.2, 0.2 μM DNA, 20 μM compound
[7] = test system: F(c-Myc)T (DNA, G4) TTGAGGGTGGGTAGGGTGGGTAA; experiment: FRET melting; settings: 1 mM K+, 99 mM Li+; 10 mM Li cacodylate pH 7.2, 0.2 μM DNA, 2 μM compound
[8] = test system: F(c-Kit2)T (DNA, G4) GGGCGGGCGCGAGGGAGGGG; experiment: FRET melting; settings: 1 mM K+, 99 mM Li+; 10 mM Li cacodylate pH 7.2, 0.2 μM DNA, 2 μM compound
[9] = test system: F(21CTA)T (DNA, G4) GGGCTAGGGCTAGGGCTAGGG; experiment: FRET melting; settings: 10 mM K+, 90 mM Li+; 10 mM Li cacodylate pH 7.2, 0.2 μM DNA, 2 μM compound
[10] = test system: F(CEB25wt)T (DNA, G4) AAGGGTGGGTGTAAGTGTGGGTGGGT; experiment: FRET melting; settings: 1 mM K+, 99 mM Li+; 10 mM Li cacodylate pH 7.2, 0.2 μM DNA, 2 μM compound

SMILES | binding [1] | binding ([2]; 100 mM K+) | binding ([2]; 100 mM Na+) | binding [3] | binding [4] | ΔT 1/2 [5] [°C] | ΔT 1/2 [6] [°C] | binding [7] | binding [8] | binding [9] | binding [10]
CN(C)Cc1cc(C#Cc2cccc(C#Cc3ccc(O)c(CN(C)C)c3)c2)ccc1O | no | yes | yes | yes | yes | – | – | – | – | – | –
CN(C)Cc1cc2cc(C#Cc3cccc(C#Cc4ccc5cc(O)c(CN(C)C)cc5c4)c3)ccc2cc1O | no | yes | – | – | – | – | – | – | – | – | –
CN(C)Cc1ccc(C#Cc2cccc(C#Cc3ccc(CN(C)C)c(O)c3)c2)cc1O | no | yes | yes | – | – | – | – | – | – | – | –
C[N+](C)(C)Cc1cc(C#Cc2cccc(C#Cc3ccc(O)c(C[N+](C)(C)C)c3)c2)ccc1O | no | yes | yes | yes | yes | – | – | – | – | – | –
C[N+](C)(C)Cc1cc2cc(C#Cc3cccc(C#Cc4ccc5cc(O)c(C[N+](C)(C)C)cc5c4)c3)ccc2cc1O | no | yes | yes | – | – | 33.3 | 29.0 | yes | weak | weak | weak
C[N+](C)(C)Cc1ccc(C#Cc2cccc(C#Cc3ccc(C[N+](C)(C)C)c(O)c3)c2)cc1O | no | yes | yes | yes | yes | – | – | – | – | – | –
